{
  "source": "paper PMC7317746",
  "about": "(Environmental and Molecular Mutagenesis, 2020)",
  "test_system": "male Sprague Dawley rats",
  "test": "Pig‐a assay",
  "assay_type": "in vivo, rat",
  "key": {"[1]": {"settings": "1-Month Study, 40 mg/kg/day Days 1-3, Day 15, positive control"}, "[2]": {"settings": "1-Month Study, 40 mg/kg/day Days 1-3, Day 29, positive control"}, "[3]": {"settings": "1-Month Study, 40 mg/kg/day, Day -1 (pre-treatment)"}, "[4]": {"settings": "3-Day Study, 40 mg/kg/day Days 1-3, Day 15, positive control"}, "[5]": {"settings": "3-Day Study, 40 mg/kg/day Days 1-3, Day 30, positive control"}, "[6]": {"settings": "3-Day Study, 40 mg/kg/day Days 1-3, Day 45, positive control"}, "[7]": {"settings": "3-Day Study, 40 mg/kg/day, Day -4 (pre-treatment)"}},
  "data": [
    {"smiles": "CCN(N=O)C(N)=O", "note": "[ENU, N‐ethyl‐N‐nitrosourea]", "values": [
      {"measurement": "%RETs mean ± SD", "setting": "[1]", "result": "3.1 ± 0.4", "unit": "%"},
      {"measurement": "Number of CD59‐Neg RBCs per 10^6 RBCs mean ± SD", "setting": "[1]", "result": "79.5 ± 12.3", "unit": "per 10^6 RBCs"},
      {"measurement": "Number of CD59‐Neg RETs per 10^6 RETs mean ± SD", "setting": "[1]", "result": "356.2 ± 64.4", "unit": "per 10^6 RETs"},
      {"measurement": "%RETs mean ± SD", "setting": "[2]", "result": "3.7 ± 0.7", "unit": "%"},
      {"measurement": "Number of CD59‐Neg RBCs per 10^6 RBCs mean ± SD", "setting": "[2]", "result": "211.0 ± 26.9", "unit": "per 10^6 RBCs"},
      {"measurement": "Number of CD59‐Neg RETs per 10^6 RETs mean ± SD", "setting": "[2]", "result": "291.4 ± 33.7", "unit": "per 10^6 RETs"},
      {"measurement": "%RETs mean ± SD", "setting": "[3]", "result": "4.8 ± 0.7", "unit": "%"},
      {"measurement": "Number of CD59‐Neg RBCs per 10^6 RBCs mean ± SD", "setting": "[3]", "result": "0.6 ± 0.3", "unit": "per 10^6 RBCs"},
      {"measurement": "Number of CD59‐Neg RETs per 10^6 RETs mean ± SD", "setting": "[3]", "result": "0.5 ± 0.5", "unit": "per 10^6 RETs"},
      {"measurement": "%RETs mean ± SD", "setting": "[4]", "result": "3.3 ± 1.1", "unit": "%"},
      {"measurement": "Number of CD59‐Neg RBCs per 10^6 RBCs mean ± SD", "setting": "[4]", "result": "97.7 ± 7.2", "unit": "per 10^6 RBCs"},
      {"measurement": "Number of CD59‐Neg RETs per 10^6 RETs mean ± SD", "setting": "[4]", "result": "414.2 ± 6.5", "unit": "per 10^6 RETs"},
      {"measurement": "%RETs mean ± SD", "setting": "[5]", "result": "3.3 ± 0.6", "unit": "%"},
      {"measurement": "Number of CD59‐Neg RBCs per 10^6 RBCs mean ± SD", "setting": "[5]", "result": "256.7 ± 62.0", "unit": "per 10^6 RBCs"},
      {"measurement": "Number of CD59‐Neg RETs per 10^6 RETs mean ± SD", "setting": "[5]", "result": "282.7 ± 77.4", "unit": "per 10^6 RETs"},
      {"measurement": "%RETs mean ± SD", "setting": "[6]", "result": "2.7 ± 0.7", "unit": "%"},
      {"measurement": "Number of CD59‐Neg RBCs per 10^6 RBCs mean ± SD", "setting": "[6]", "result": "382.7 ± 26.3", "unit": "per 10^6 RBCs"},
      {"measurement": "Number of CD59‐Neg RETs per 10^6 RETs mean ± SD", "setting": "[6]", "result": "305.9 ± 59.5", "unit": "per 10^6 RETs"},
      {"measurement": "%RETs mean ± SD", "setting": "[7]", "result": "3.2 ± 0.4", "unit": "%"},
      {"measurement": "Number of CD59‐Neg RBCs per 10^6 RBCs mean ± SD", "setting": "[7]", "result": "0.4 ± 0.1", "unit": "per 10^6 RBCs"},
      {"measurement": "Number of CD59‐Neg RETs per 10^6 RETs mean ± SD", "setting": "[7]", "result": "1.6 ± 0.7", "unit": "per 10^6 RETs"}
    ]}
  ]
}
